Measured values reported in US20220220103A1, “CYCLIN-DEPENDENT KINASE INHIBITORS” (SPV THERAPEUTICS INC., priority 2018, published 2022).
Where “and” joins values, the source holds several entries; their conditions need not be identical. Equal entries are not always repeated. Where two headings read alike, the source gives them in different places.

Assays:
CDK4-CYCLIND1 = CDK4-CYCLIND1 (Homo sapiens, UniProt P11802); assay: Microfluidic LabChip inhibition assay, CDK4-CYCLIND1; format: biochemical; settings: ATP 200 μM
CDK4-CYCLIND1, sequence (P11802 whole entry): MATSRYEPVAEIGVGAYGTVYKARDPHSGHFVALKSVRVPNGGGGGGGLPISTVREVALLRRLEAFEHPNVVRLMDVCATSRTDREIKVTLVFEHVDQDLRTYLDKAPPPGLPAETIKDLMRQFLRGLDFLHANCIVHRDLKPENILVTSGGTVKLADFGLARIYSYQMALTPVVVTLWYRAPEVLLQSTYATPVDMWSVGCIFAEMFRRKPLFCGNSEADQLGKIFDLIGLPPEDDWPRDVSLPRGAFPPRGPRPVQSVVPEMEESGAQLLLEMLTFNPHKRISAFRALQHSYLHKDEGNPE
CDK4-CYCLIND1, sequence (P24385 whole entry partner): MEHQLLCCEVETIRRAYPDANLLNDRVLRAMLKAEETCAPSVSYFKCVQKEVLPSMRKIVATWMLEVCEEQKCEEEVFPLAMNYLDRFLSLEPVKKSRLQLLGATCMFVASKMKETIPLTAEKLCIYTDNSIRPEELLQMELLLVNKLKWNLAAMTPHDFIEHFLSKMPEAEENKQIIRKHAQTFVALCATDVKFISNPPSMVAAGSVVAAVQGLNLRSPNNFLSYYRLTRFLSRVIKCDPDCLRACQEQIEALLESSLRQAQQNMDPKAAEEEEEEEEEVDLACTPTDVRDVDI
Procedure: (§1) The reaction was terminated by the addition of EDTA. The plates were analyzed using a Caliper LabChip 3000.
(§2) Additional inhibition assays were performed as described above.

CDK6-CYCLIND3 = CDK6-CYCLIND3 (Homo sapiens, UniProt Q00534); assay: Microfluidic LabChip inhibition assay, CDK6-CYCLIND3; format: biochemical; settings: ATP 300 μM
CDK6-CYCLIND3, sequence (Q00534 whole entry): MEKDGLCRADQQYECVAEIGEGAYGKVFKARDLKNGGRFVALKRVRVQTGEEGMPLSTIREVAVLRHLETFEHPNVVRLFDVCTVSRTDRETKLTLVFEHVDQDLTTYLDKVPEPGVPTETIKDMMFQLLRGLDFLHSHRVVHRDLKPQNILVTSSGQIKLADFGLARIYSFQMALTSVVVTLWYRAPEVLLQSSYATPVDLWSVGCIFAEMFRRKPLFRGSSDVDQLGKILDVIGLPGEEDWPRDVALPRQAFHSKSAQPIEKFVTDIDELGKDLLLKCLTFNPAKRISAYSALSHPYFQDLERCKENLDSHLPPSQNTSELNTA
CDK6-CYCLIND3, sequence (P30281 whole entry partner): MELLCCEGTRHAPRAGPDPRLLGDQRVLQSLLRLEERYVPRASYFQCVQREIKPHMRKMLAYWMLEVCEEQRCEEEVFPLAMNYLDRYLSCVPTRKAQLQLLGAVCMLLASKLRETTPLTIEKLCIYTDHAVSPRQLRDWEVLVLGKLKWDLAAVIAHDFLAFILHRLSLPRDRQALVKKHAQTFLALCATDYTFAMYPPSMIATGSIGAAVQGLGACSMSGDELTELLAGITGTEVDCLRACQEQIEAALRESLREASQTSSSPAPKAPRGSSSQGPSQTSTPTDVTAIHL
Procedure: as §1, §2

[1] = Table 2, 25° C., read-out: CDK4 IC50
[2] = Table 2, 25° C., read-out: CDK6 IC50
[3] = Table 3a, second values in parentheses on the line below, not explained, read-out: CDK4 CyclinD1 IC50
[4] = Table 3b, second values in parentheses on the line below, not explained, read-out: CDK4 CyclinD1 IC50
[5] = Table 3a, read-out: CDK6 CyclinD3 IC50

Row | Structure (SMILES) | IC50 (CDK4-CYCLIND1; [1]) [µM] | IC50 (CDK6-CYCLIND3; [2]) [µM] | IC50 (CDK4-CYCLIND1; [3]) | IC50 (CDK4-CYCLIND1; [4]) | IC50 (CDK6-CYCLIND3; [5]) [µM]
1 | N#Cc1cc2cnc(Nc3ccc(OCCN4CCCC4)c(F)c3)nc2n(C2CCCC2)c1=O [Compound B30] | 0.00762 | 0.0242 |  |  | 
2 | N#Cc1cc2cnc(Nc3ccc(N4CC5(CNC5)C4)cc3)nc2n(C2CCCC2)c1=O [Compound B31, 2-((4-(2,6-diazaspiro[3.3]heptan-2-yl)phenyl)amino)-8-cyclopentyl-7-oxo-7,8-dihydropyrido[2,3-d]pyrimidine-6-carbonitrile] | 0.00241 | 0.00829 |  |  | 
3 | N#Cc1cc2cnc(Nc3ccc(N4CC5(CNC5)C4)cn3)nc2n(C2CCCC2)c1=O [Compound B32, 2-((5-(2,6-diazaspiro[3.3]heptan-2-yl)pyridin-2-yl)amino)-8-cyclopentyl-7-oxo-7,8-dihydropyrido[2,3-d]pyrimidine-6-carbonitrile] | 0.0211 | 0.0334 |  |  | 
4 | N#Cc1cc2cnc(Nc3ccc(N4CC5(CNC5)C4)nc3)nc2n(C2CCCC2)c1=O [Compound B33, 2-((6-(2,6-diazaspiro[3.3]heptan-2-yl)pyridin-3-yl)amino)-8-cyclopentyl-7-oxo-7,8-dihydropyrido[2,3-d]pyrimidine-6-carbonitrile] | 0.00597 | 0.0144 |  |  | 
5 | N#Cc1cc2cnc(Nc3ccc(N4CC5(CNC5)C4)c(F)c3)nc2n(C2CCCC2)c1=O [Compound B34, 8-cyclopentyl-2-((3-fluoro-4-(2,6-diazaspiro[3.3]heptan-2-yl)phenyl)amino)-7-oxo-7,8-dihydropyrido[2,3-d]pyrimidine-6-carbonitrile] | 0.00121 | 0.00389 |  |  | 
6 | CN(C)[C@H]1CCN(C(=O)c2ccc(Nc3ncc4cc(C#N)c(=O)n(C5CCCC5)c4n3)cc2)C1 [Compound B35, (S)-8-cyclopentyl-2-((4-(3-(dimethylamino)pyrrolidine-1-carbonyl)phenyl)amino)-7-oxo-7,8-dihydropyrido[2,3-d]pyrimidine-6-carbonitrile] | 0.00384 | 0.0223 |  |  | 
7 | CN(C)[C@H]1CCN(C(=O)c2ccc(Nc3ncc4cc(C#N)c(=O)n(C5CCCC5)c4n3)cc2F)C1 [Compound B36, (S)-8-cyclopentyl-2-((4-(3-(dimethylamino)pyrrolidine-1-carbonyl)-3-fluorophenyl)amino)-7-oxo-7,8-dihydropyrido[2,3-d]pyrimidine-6-carbonitrile] | 0.0132 | 0.0731 |  |  | 
8 | CCN1CCN(Cc2ccc(Nc3ncc4cc(C#N)c(=O)n(C5CCCC5)c4n3)nc2)CC1 [Compound B37, 8-cyclopentyl-2-((5-((4-ethylpiperazin-1-yl)methyl)pyridin-2-yl)amino)-7-oxo-7,8-dihydropyrido[2,3-d]pyrimidine-6-carbonitrile] | 0.0463 | 0.0936 |  |  | 
9 | N#Cc1cc2cnc(Nc3ccc(N4CCC(N5CCOCC5)CC4)cc3)nc2n(C2CCCC2)c1=O [Compound B38, 8-cyclopentyl-2-((4-(4-morpholinopiperidin-1-yl)phenyl)amino)-7-oxo-7,8-dihydropyrido[2,3-d]pyrimidine-6-carbonitrile] | 0.00981 | 0.0298 |  |  | 
10 | N#Cc1cc2cnc(Nc3ccc(N4CCC(N5CCOCC5)CC4)cn3)nc2n(C2CCCC2)c1=O [Compound B39, 8-cyclopentyl-2-((5-(4-morpholinopiperidin-1-yl)pyridin-2-yl)amino)-7-oxo-7,8-dihydropyrido[2,3-d]pyrimidine-6-carbonitrile] | 0.00927 | 0.0279 |  |  | 
11 | N#Cc1cc2cnc(Nc3ccc(N4CCC(N5CCOCC5)CC4)nc3)nc2n(C2CCCC2)c1=O [Compound B40, 8-cyclopentyl-2-((6-(4-morpholinopiperidin-1-yl)pyridin-3-yl)amino)-7-oxo-7,8-dihydropyrido[2,3-d]pyrimidine-6-carbonitrile] | 0.0113 | 0.0308 |  |  | 
12 | N#Cc1cc2cnc(Nc3ccc(N4CCC(N5CCOCC5)CC4)c(F)c3)nc2n(C2CCCC2)c1=O [Compound B41, 8-cyclopentyl-2-((3-fluoro-4-(4-morpholinopiperidin-1-yl)phenyl)amino)-7-oxo-7,8-dihydropyrido[2,3-d]pyrimidine-6-carbonitrile] | 0.00788 | 0.0279 |  |  | 
13 | CN(C)[C@H]1CCN(c2ccc(Nc3ncc4cc(C#N)c(=O)n(C5CCCC5)c4n3)cc2)C1 [Compound B42, (S)-8-cyclopentyl-2-((4-(3-(dimethylamino)pyrrolidin-1-yl)phenyl)amino)-7-oxo-7,8-dihydropyrido[2,3-d]pyrimidine-6-carbonitrile] | 0.00231 | 0.00601 |  |  | 
14 | CN(C)[C@H]1CCN(c2ccc(Nc3ncc4cc(C#N)c(=O)n(C5CCCC5)c4n3)nc2)C1 [Compound B43, (S)-8-cyclopentyl-2-((5-(3-(dimethylamino)pyrrolidin-1-yl)pyridin-2-yl)amino)-7-oxo-7,8-dihydropyrido[2,3-d]pyrimidine-6-carbonitrile] | 0.0469 | 0.0615 |  |  | 
15 | CN(C)[C@H]1CCN(c2ccc(Nc3ncc4cc(C#N)c(=O)n(C5CCCC5)c4n3)cn2)C1 [Compound B44, (S)-8-cyclopentyl-2-((6-(3-(dimethylamino)pyrrolidin-1-yl)pyridin-3-yl)amino)-7-oxo-7,8-dihydropyrido[2,3-d]pyrimidine-6-carbonitrile] | 0.0106 | 0.0309 |  |  | 
16 | CN(C)[C@H]1CCN(c2ccc(Nc3ncc4cc(C#N)c(=O)n(C5CCCC5)c4n3)cc2F)C1 [Compound B45, (S)-8-cyclopentyl-2-((4-(3-(dimethylamino)pyrrolidin-1-yl)-3-fluorophenyl)amino)-7-oxo-7,8-dihydropyrido[2,3-d]pyrimidine-6-carbonitrile] | 0.00368 | 0.00986 |  |  | 
17 | CC(=O)c1c(C)c2cnc(Nc3ccc(OCCN(C)C)nc3)nc2n(C2CCCC2)c1=O [Compound B63, 6-acetyl-8-cyclopentyl-2-((6-(2-(dimethylamino)ethoxy)pyridin-3-yl)amino)-5-methylpyrido[2,3-d]pyrimidin-7(8H)-one] |  |  | 0.00864 µM and 0.00636 µM | 0.00864 µM and 0.00636 µM | 0.037
18 | CC(=O)c1c(C)c2cnc(Nc3ccc(N(C)CCN(C)C)cc3)nc2n(C2CCCC2)c1=O [Compound B64, 6-acetyl-8-cyclopentyl-2-((4-((2-(dimethylamino)ethyl)(methyl)amino)phenyl)amino)-5-methylpyrido[2,3-d]pyrimidin-7(8H)-one] |  |  | 0.00822 µM | 0.00822 µM | 0.0761
19 | CC(=O)c1c(C)c2cnc(Nc3ccc(OCCN(C)C)cn3)nc2n(C2CCCC2)c1=O [Compound B65, 6-acetyl-8-cyclopentyl-2-((5-(2-(dimethylamino)ethoxy)pyridin-2-yl)amino)-5-methylpyrido[2,3-d]pyrimidin-7(8H)-one] |  |  | 0.00147 µM | 0.00147 µM | 0.0467
20 | CC(=O)c1c(C)c2cnc(Nc3ccc(OCCN4CCCCC4)cn3)nc2n(C2CCCC2)c1=O [Compound B67, 6-acetyl-8-cyclopentyl-5-methyl-2-((5-(2-(piperidin-1-yl)ethoxy)pyridin-2-yl)amino)pyrido[2,3-d]pyrimidin-7(8H)-one] |  |  | 0.0488 µM | 0.0488 µM | 0.298
21 | CN1CCN(c2ccc(Nc3ncc4cc(C(=O)N(C)C)c(=O)n(C5CCCC5)c4n3)cc2F)CC1 [Compound B139, 8-cyclopentyl-2-((3-fluoro-4-(4-methylpiperazin-1-yl)phenyl)amino)-N,N-dimethyl-7-oxo-7,8-dihydropyrido[2,3-d]pyrimidine-6-carboxamide] |  |  | 0.0074 µM | 0.0074 µM | 0.0762
22 | CN1CCN(c2ccc(Nc3ncc4cc(C(=O)N(C)C)c(=O)n(C5CCCC5)c4n3)nc2)CC1 [Compound B141, 8-cyclopentyl-N,N-dimethyl-2-((5-(4-methylpiperazin-1-yl)pyridin-2-yl)amino)-7-oxo-7,8-dihydropyrido[2,3-d]pyrimidine-6-carboxamide] |  |  | 0.715 µM | 0.715 µM | 1.99
23 | CNC(=O)c1cc2cnc(Nc3ccc(N4CCN(C)CC4)cc3)nc2n(C2CCCC2)c1=O [Compound B143, 8-cyclopentyl-N-methyl-2-((4-(4-methylpiperazin-1-yl)phenyl)amino)-7-oxo-7,8-dihydropyrido[2,3-d]pyrimidine-6-carboxamide] |  |  | 0.017 µM |  | 0.134
24 | CNC(=O)c1cc2cnc(Nc3ccc(N4CCN(C)CC4)c(F)c3)nc2n(C2CCCC2)c1=O [Compound B144, 8-cyclopentyl-2-((3-fluoro-4-(4-methylpiperazin-1-yl)phenyl)amino)-N-methyl-7-oxo-7,8-dihydropyrido[2,3-d]pyrimidine-6-carboxamide] |  |  | 0.0136 µM and 0.01 µM | 0.0136 µM and 0.01 µM | 0.138
25 | CNC(=O)c1cc2cnc(Nc3ccc(N4CCN(C)CC4)nc3)nc2n(C2CCCC2)c1=O [Compound B145, 8-cyclopentyl-N-methyl-2-((6-(4-methylpiperazin-1-yl)pyridin-3-yl)amino)-7-oxo-7,8-dihydropyrido[2,3-d]pyrimidine-6-carboxamide] |  |  | 0.37 µM | 0.37 µM | 2.24
26 | CC(=O)NC(=O)c1cc2cnc(Nc3ccc(N4CCN(C)CC4)cn3)nc2n(C2CCCC2)c1=O [Compound B146, N-acetyl-8-cyclopentyl-2-((5-(4-methylpiperazin-1-yl)pyridin-2-yl)amino)-7-oxo-7,8-dihydropyrido[2,3-d]pyrimidine-6-carboxamide] |  |  | 0.459 µM | 0.459 µM | 1.49
27 | N#Cc1cc2cnc(Nc3ccc(N4CCNCC4)c(F)c3)nc2n(C23CC(C2)C3)c1=O [Compound B147, 8-(bicyclo[1.1.1]pentan-1-yl)-2-((3-fluoro-4-(piperazin-1-yl)phenyl)amino)-7-oxo-7,8-dihydropyrido[2,3-d]pyrimidine-6-carbonitrile] |  |  | 0.047 µM | 0.047 µM | 0.0817
